Assay results reported in patent US4049660A, “N-substituted derivatives of 4 (N-piperazinylmethyl) spiro dibenzocycloheptadi- (or tri-) ene-5, 2-dioxolane (1,3) their method of preparation and their application in therapeutics” (Delalande S.A., priority 1971, dated 1977).
Read-outs that look alike come from different tables or passages of the source.

Experiments:
[1] = Acute toxicity / mortality, oral, mice; assay type: in vivo; conditions: mouse, in vivo; for LD50: oral; for mortality: read-out: Percentage of mortality with mice
From the text: As is shown by the preceding results and by those given in Table XIV below, the difference between pharmacologically active doses and lethal doses is sufficiently great to allow the use of compounds of formula (I) in therapeutics.

[2] = test system: ptosis caused by reserpine; experiment: Anti-depressive: antagonism against ptosis caused by intravenous reserpine; assay type: in vivo; conditions: for ED50: po, read-out: Antagonism against ptosis caused by reserpine (DE50)
Description: (§1) In this regard, the compounds of formula I differ unexpectedly from the compounds of U.S. Pat. No. 3,726,900, as shown by comparative testing.
(§2) The anti-depressive properties of additional analog compounds were tested by the same tests. In these tests, the comparison compounds had the formula [drawing 28] The specific compounds tested and the test results are indicated in Table XIII.

[3] = test system: lethal effect of yohimbine; experiment: Anti-depressive: potentialization of lethal effect of yohimbine; assay type: in vivo
Description: as §1, §2

[4] = test system: isolated duodenum of a rat (barium chloride); experiment: Spasmolytic: contraction by barium chloride of isolated duodenum of a rat; conditions: for Spasmolytic activity: relative to papaverine as the standard
Description: Compounds of formula I, introduced in the survival medium, are capable of opposing the contacting action of barium chloride on the isolated duodenum of a rat. This activity is determined either by taking papaverine as the standard or by calculating the DE50 of the compound tested.

[5] = test system: painful stretchings following intraperitoneal injection of acetic acid; experiment: Analgesic: painful stretchings following intraperitoneal acetic acid in mouse; assay type: in vivo; conditions: 100 mg/kg/PO, read-out: Percentage reduction in the number of painful stretchings
From the text: The compounds of formula (I) administered orally to a mouse are capable of reducing the number of painful stretchings following the intraperitoneal injection of acetic acid.

[6] = test system: ventricular fibrillations caused by inhaling chloroform; experiment: Antiarythmic: ventricular fibrillations caused by inhaling chloroform in mouse; assay type: in vivo; conditions: ip, intraperitoneal, read-out: Antagonism to fibrillations caused by chloroform with a mouse, DE50
From the text: Administered intraperitoneally, the compounds of formula (I) are able to protect the mouse against ventricular fibrillations caused by inhaling chloroform.

[7] = test system: isolated fundus of rats (serotonine); experiment: Antiserotonine: contractions of the isolated fundus of rats provoked by serotonine; conditions: in vitro
From the text: (§3) For purposes of comparison, compounds of the formula (I) were compared, as to their antiserotonine properties, with a respresentative sampling of compounds disclosed in U.S. Pat. No. 3,726,900. The comparison compounds tested have the formula [drawing 23]

[8] = test system: bronchoconstrictions provoked by serotonine; experiment: Antiserotonine: bronchoconstrictions provoked by intravenous serotonine in guinea pigs (Konzett and Rossler test); assay type: in vivo; conditions: Cavia porcellus, serotonine bronchoconstriction, read-out: Test of Konzett and Rossler DE50
From the text: as §3

[9] = test system: cough caused by stimulation of the upper laryngeal nerve; experiment: Anti-cough: cough caused by stimulation of the upper laryngeal nerve in an anaesthetized cat; assay type: in vivo
arterial pressure = experiment: Hypotensive: arterial pressure of anaesthetized rat; assay type: in vivo
From the text: Administered intravenously to an anaesthetized rat, the compounds of formula (I) cause a lowering of arterial pressure.

[10] = test system: isolated tied uterus (serotonine); experiment: Antiserotonine: contractions of the isolated tied uterus provoked by serotonine; conditions: in vitro
From the text: as §3

urinary elimination = experiment: Diuretic: volume of urine in mouse; assay type: in vivo; conditions: 4 hours, versus controls, read-out: Percentage increase in urinary elimination; for change in vivo at 12.5 mg/kg: 12.5 mg/kg/PO
Description: The compounds of formula (I) administered orally to a mouse simultaneously with a volume of 1 ml of sodium chloride isotonic solute per 25 g of body weight are able to cause an increase of the volume of urine given compared with controls, this volume being measured for the 4 hours following administration.

[11] = test system: isolated ileum of a guinea pig (histamine); experiment: Antihistamine: contraction by histamine of isolated ileum of a guinea pig
Description: The compounds of formula (I) introduced in the survival medium are able to oppose the contracting action of histamine on the isolated ileum of a guinea pig. This activity is calculated by the DE50 of the tested compounds.

[12] = test system: local edema caused by carraghenine; experiment: Antiinflammatory: local plantar edema caused by carraghenine in rat; assay type: in vivo; conditions: 100 mg/kg/PO
From the text: These properties bring about a reduction of the local edema, caused by injecting a rat under the plantar with a phlogogenic agent such as carraghenine, following oral administration of compounds of formula (I).

[13] = mice, Table XI, read-out: LD50 (mice)
[14] = at 100 mg/kg/PO, result in words
[15] = at 50 mg/kg/PO, result in words

CCNCC1COC2(O1)c1ccccc1CCc1ccccc12 (stereo not drawn) [R = C2 H5 (--Z-- = --CH2 --CH2 --), reference compound]
LD50 ([1]; Table XIII, read-out: LD50): 550 mg/kg
ED50 ([2]; Table XIII): ~50 mg/kg

CCNCC1COC2(O1)c1ccccc1C=Cc1ccccc12 (stereo not drawn) [R = C2 H5 (--Z-- = --CH = CH--), reference compound]
LD50 ([1]; Table XIII, read-out: LD50): 375 mg/kg
ED50 ([2]; Table XIII): 70 mg/kg
Potentialization of lethal effect of yohimbine ([3]; at 50 mg/kg/PO, Table XIII): 60%

CC(C)NCC1COC2(O1)c1ccccc1C=Cc1ccccc12 (stereo not drawn) [R = C3 H7 (i) (--Z-- = --CH = CH--), reference compound]
LD50 ([1]; Table XIII, read-out: LD50): 550 mg/kg
Antagonism against ptosis caused by reserpine ([2]; at 50 mg/kg/PO, Table XIII): 20%

CCC(C)NCC1COC2(O1)c1ccccc1CCc1ccccc12 (stereo not drawn) [R = C4 H9 (s) (--Z-- = --CH2 --CH2 --), reference compound]
LD50 ([1]; Table XIII, read-out: LD50): 900 mg/kg
ED50 ([2]; Table XIII): 45 mg/kg
Potentialization of lethal effect of yohimbine ([3]; at 50 mg/kg/PO, Table XIII): ~40%

CNCC1COC2(O1)c1ccccc1CCc1ccccc12 (stereo not drawn) [R = CH3 (--Z-- = --CH2 --CH2 --), reference compound]
LD50 ([1]; Table XIII, read-out: LD50): 850 mg/kg
ED50 ([2]; Table XIII): 60 mg/kg

CNCC1COC2(O1)c1ccccc1C=Cc1ccccc12 (stereo not drawn) [R = CH3 (--Z-- = --CH = CH--), reference compound]
LD50 ([1]; Table XIII, read-out: LD50): 750 mg/kg
ED50 ([2]; Table XIII): 25 mg/kg

CCCN(CCC)C(=O)CN1CCN(CC2COC3(O2)c2ccccc2C=Cc2ccccc23)CC1 (stereo not drawn) [compound 7204, -4'-[N'-(di-n-propylaminocarbonylmethyl) N-piperazinylmethyl] spiro [dibenzo(a,d)cycloheptatriene-5:2' dioxolane (1',3')] dimaleate]
DE50 (spasmolytic) [4]: 2.50 µg/mL
inhibition in vivo at 100 mg/kg [5]: 70%
ED50 [6]: 100 mg/kg
Antagonisms against contractions of fundus of rat, DE50 [7]: 0.07 µg/mL
mortality ([1]; 1900 mg/kg/PO): ~50%
LD50 [1, 13]: 1900 mg/kg

C1=Cc2ccccc2C2(OCC(CN3CCCC3)O2)c2ccccc21 (stereo not drawn) [compound 70301, reference compound]
ED50 [8]: 0.4 mg/kg
LD50 [1, 13]: 425 mg/kg

C1=Cc2ccccc2C2(OCC(CN3CCCCC3)O2)c2ccccc21 (stereo not drawn) [compound 70315, reference compound]
ED50 [8]: 1.4 mg/kg
LD50 [1, 13]: 700 mg/kg
Antagonism against ptosis caused by reserpine ([2]; at 75 mg/kg/PO): 45%

O=C(CN1CCN(CC2COC3(O2)c2ccccc2CCc2ccccc23)CC1)N1CCCC1 (stereo not drawn) [compound 70339]
Reduction of cough, duration ([9]; 1 mg/kg/IV): 20 mm
Reduction of cough, intensity ([9]; 1 mg/kg/IV): 100%
Spasmolytic activity [4]: 1 × papaverine
inhibition in vivo at 100 mg/kg [5]: 75%
Reduction of arterial pressure, duration (arterial pressure; 1 mg/kg/IV): > 30 mm
Reduction of arterial pressure, intensity (arterial pressure; 1 mg/kg/IV): 80%
ED50 [8]: 0.1 mg/kg
Antagonisms against contractions of tied uterus, DE50 [10]: 0.002 µg/mL
Antagonisms against contractions of fundus of rat, DE50 [7]: 0.67 µg/mL
mortality ([1]; 1200 mg/kg/PO): ~50%
LD50 [1, 13]: 1200 mg/kg
Antagonism against ptosis caused by reserpine ([2]; at 100 mg/kg/PO): Inactive
Potentialization of lethal effect of yohimbine [3, 14]: Inactive

CC(C)NC(=O)CN1CCN(CC2COC3(O2)c2ccccc2CCc2ccccc23)CC1 (stereo not drawn) [compound 70347]
Reduction of cough, duration ([9]; 1 mg/kg/IV): 20 mm
Reduction of cough, intensity ([9]; 1 mg/kg/IV): 80%
Spasmolytic activity [4]: 1.5 × papaverine
inhibition in vivo at 100 mg/kg [5]: 70%
Reduction of arterial pressure, duration (arterial pressure; 2 mg/kg/IV): > 30 mm
Reduction of arterial pressure, intensity (arterial pressure; 2 mg/kg/IV): 50%
ED50 [8]: 0.5 mg/kg
Antagonisms against contractions of tied uterus, DE50 [10]: 0.02 µg/mL
mortality ([1]; 1200 mg/kg/PO): ~50%
LD50 [1, 13]: 1200 mg/kg
Antagonism against ptosis caused by reserpine ([2]; at 100 mg/kg/PO): Inactive
Potentialization of lethal effect of yohimbine [3, 14]: Inactive

O=C(CN1CCN(CC2COC3(O2)c2ccccc2CCc2ccccc23)CC1)N1CCOCC1 (stereo not drawn) [compound 70357]
Reduction of cough, duration ([9]; 2 mg/kg/IV): 20 mm
Reduction of cough, intensity ([9]; 2 mg/kg/IV): 100%
Spasmolytic activity [4]: 1.5 × papaverine
ED50 [8]: 0.005 mg/kg
Antagonisms against contractions of tied uterus, DE50 [10]: 0.005 µg/mL
Antagonisms against contractions of fundus of rat, DE50 [7]: 0.54 µg/mL
mortality ([1]; 1300 mg/kg/PO): ~50%
LD50 [1, 13]: 1300 mg/kg
Antagonism against ptosis caused by reserpine ([2]; at 100 mg/kg/PO): Inactive
Potentialization of lethal effect of yohimbine [3, 14]: Inactive

CCOC(=O)CN1CCN(CC2COC3(O2)c2ccccc2CCc2ccccc23)CC1 (stereo not drawn) [compound 70365]
Spasmolytic activity [4]: 3 × papaverine
inhibition in vivo at 100 mg/kg [5]: 75%
ED50 [8]: 0.6 mg/kg
mortality ([1]; 1250 mg/kg/PO): ~50%
LD50 [1, 13]: 1250 mg/kg
Antagonism against ptosis caused by reserpine ([2]; at 100 mg/kg/PO): Inactive
Potentialization of lethal effect of yohimbine [3, 14]: Inactive

c1ccc(C(c2ccccc2)N2CCN(CC3COC4(O3)c3ccccc3CCc3ccccc34)CC2)cc1 (stereo not drawn) [compound 70374]
Reduction of arterial pressure, duration (arterial pressure; 2 mg/kg/IV): 20 mm
Reduction of arterial pressure, intensity (arterial pressure; 2 mg/kg/IV): 35%
mortality ([1]; 2000 mg/kg/PO): 0%
LD50 ([1]; Table XII, read-out: LD50): > 2000 mg/kg
Antagonism against ptosis caused by reserpine ([2]; at 100 mg/kg/PO): Inactive
Potentialization of lethal effect of yohimbine [3, 14]: Inactive

OCC(O)CN1CCN(CC2COC3(O2)c2ccccc2CCc2ccccc23)CC1 (stereo not drawn) [compound 70405, 4'-N'-(2",3"-dihydroxy "-propyl)N-piperazinyl methyl spiro dibenzo (a,d) cycloheptadiene-5:2' dioxolane (1',3') dimaleate]
Reduction of cough, duration ([9]; 100 mg/kg/ID): 60 mm
Reduction of cough, intensity ([9]; 100 mg/kg/ID): 100%
Reduction of arterial pressure, duration (arterial pressure; 2 mg/kg/IV): > 60 mm
Reduction of arterial pressure, intensity (arterial pressure; 2 mg/kg/IV): 40%
mortality ([1]; 1600 mg/kg/PO): ~50%

O=C(CN1CCN(CC2COC3(O2)c2ccccc2C=Cc2ccccc23)CC1)N1CCOCC1 (stereo not drawn) [compound 71564]
DE50 (spasmolytic) [4]: 2.50 µg/mL
ED50 [6]: 200 mg/kg
change in vivo at 12.5 mg/kg (urinary elimination): 50%
ED50 [8]: 0.05 mg/kg
Antagonisms against contractions of tied uterus, DE50 [10]: 0.001 µg/mL
Antagonisms against contractions of fundus of rat, DE50 [7]: 0.74 µg/mL
mortality ([1]; 3500 mg/kg/PO): ~50%
LD50 [1, 13]: 3500 mg/kg

CC(C)NC(=O)CN1CCN(CC2COC3(O2)c2ccccc2C=Cc2ccccc23)CC1 (stereo not drawn) [compound 72134]
ED50 [6]: 65 mg/kg
Antihistamine activity DE50 [11]: 1 µg/mL
change in vivo at 50 mg/kg (urinary elimination; 50 mg/kg/PO): 55%
mortality ([1]; 1200 mg/kg/PO): ~50%
LD50 [1, 13]: 1200 mg/kg
Antagonism against ptosis caused by reserpine [2, 15]: Inactive

O=C(CN1CCN(CC2COC3(O2)c2ccccc2C=Cc2ccccc23)CC1)N1CCCCCC1 (stereo not drawn) [compound 72176]
DE50 (spasmolytic) [4]: 3.50 µg/mL
ED50 [6]: 100 mg/kg
Antihistamine activity DE50 [11]: 0.5 µg/mL
mortality ([1]; 3400 mg/kg/PO): ~50%

CNC(=O)CN1CCN(CC2COC3(O2)c2ccccc2C=Cc2ccccc23)CC1 (stereo not drawn) [compound 72188]
inhibition in vivo at 100 mg/kg [5]: 60%
ED50 [6]: 38 mg/kg
Antihistamine activity DE50 [11]: 1 µg/mL
change in vivo at 25 mg/kg (urinary elimination; 25 mg/kg/PO): 40%
ED50 [8]: 0.25 mg/kg
mortality ([1]; 1100 mg/kg/PO): ~50%
LD50 [1, 13]: 1100 mg/kg
Antagonism against ptosis caused by reserpine [2, 15]: Inactive

OCC(O)CN1CCN(CC2COC3(O2)c2ccccc2C=Cc2ccccc23)CC1 (stereo not drawn) [compound 72196]
DE50 (spasmolytic) [4]: 0.25 µg/mL
inhibition in vivo at 100 mg/kg [5]: 45%
Percentage reduction of the edema [12]: 70%
Antihistamine activity DE50 [11]: 1 µg/mL
change in vivo at 12.5 mg/kg (urinary elimination): 40%
mortality ([1]; 1100 mg/kg/PO): ~50%
LD50 [1, 13]: 1100 mg/kg
